Experimental findings from patent US20150157584A1, “INHIBITORS OF HIPPO-YAP SIGNALING PATHWAY” (The Regents of the University of California, priority 2012, published 2015) are described below.

One test has as its system YAP/TAZ. As to the kind of experiment: immunoblotting / phos-tag gels of YAP/TAZ phosphorylation in cultured cell lines. Type of test: cell-based, human. How it is done:
Immunoblotting was performed using standard protocol. […] The phos-tag reagents were purchased from Wako Chemicals, and gels containing phos-tag were prepared according to manufacture's instructions. YAP proteins can be separated into multiple bands in the presence of phos-tag depending on differential phosphorylation levels, with phosphorylated proteins run migrate slower.
(§1) Immunoblotting was performed using standard protocol. Antibodies for pYAP (S127), YAP, TAZ (V386), pCREB, CREB, pMLC2 (S19), pMLC2 (T18/S19), MST1, MST2, and Lats1 were from Cell Signaling Technology. Lats2 antibody was from Bethyl laboratories. HA-HRP, GFP, and MLC2 antibodies were from Santa Cruz biotechnology. Tubulin, HSP90 and Flag-HRP were purchased from Sigma Aldrich. PKA antibody was obtained from BD biosciences. GAPDH antibody was a gift from Dr. Yan Luo. Yki antibody was a gift from Dr. Kenneth Irvine. The phos-tag reagents were purchased from Wako Chemicals, and gels containing phos-tag and MnC12 were prepared according to manufacturer's instructions. YAP proteins can be separated into multiple bands on phos-tag gels, with the phosphorylated form of YAP proteins migrating at a slower speed.

Test [1] deals with Lats1. As to the kind of experiment: Lats1 immunoprecipitation kinase assay with GST-YAP substrate. Type of test: cell-based, human.
Procedure: Cells were lysed using mild lysis buffer (50 mM HEPES at pH 7.5, 150 mM NaCl, 1 mM EDTA, 1% NP-40, 10 mM pyrophosphate, 10 mM glycerophosphate, 50 mM NaF, 1.5 mM Na3VO4, protease inhibitor cocktail [Roche], 1 mM PMSF). Cell lysates were cleared and used for immunoprecipitation. Lats1 antibody (Cell Signaling Technology) was mixed with cell lysates for 1 hr at 4° C., and then protein A agarose beads were added in for 1 hr. After four washes with lysis buffer, beads were washed once with wash buffer (40 mM HEPES, 200 mM NaCl) and once with kinase assay buffer (30 mM HEPES, 50 mM potassium acetate, 5 mM MgCl2). The immunoprecipitated Lats1 was then subjected to a kinase assay in the presence of 500 μM cold ATP, 10 μCi [γ-32P] ATP, and 1 μg of GST-YAP expressed and purified from Escherichia coli as substrate. The reaction mixtures were incubated for 30 min at 30° C., terminated with SDS sample buffer, and subjected to SDS-PAGE and immunoblotting.
The subject of test [2] is YAP. The following applies: mouse, in vivo, ip.
Procedure: A protocol for epinephrine intraperitoneal (IP) injection in mice was approved by UCSD Institutional Animal Care and Use Committee. Fed male mice at 12 weeks of age were anesthetized. Control animals received an IP injection of propranolol (4 mg/100 g body weight) for 15 min. The test animals IP injected with epinephrine (75 μg/100 g body weight) for 15 min. […] The mice were sacrificed rapidly by cervical dislocation and the heart was harvested and immediately frozen in liquid nitrogen. Samples were stored at −80° C. until use. Frozen tissues were pulverized in liquid nitrogen. All of the subsequent steps were performed at 4° C. Powdered tissue samples were homogenized in 10 volumes (weight/volume) of buffer containing 50 mM Tris-HCl pH 7.6, 10 mM EDTA, 2 mM EGTA, 100 mM NaF, Protease inhibitor cocktail (1 mM Pefabloc, 1 mM benzamidine HCl, 1 μM leupeptin, and 1 μM E64), 1 mM PMSF, 0.2% Tritonx 100, 1 mM Na3VO4, 20 mM beta-glycerophosphate, 1 mM sodium pyrophosphate, and 50 nM calyculin A, using a tissue tearor. Homogenates were then centrifuged at 3,800 g for 10 min twice, and approximately 10 μg of protein, determined by Bradford, of the resultant supernatants were used for Western blot analysis.
For test [3], the system named is YAP. As to the kind of experiment: immunofluorescence staining of YAP subcellular localization. Type of test: cell-based, human. Here is the method:
HEK293A or MCF10A cells were seeded on coverslips. After treatment, cells were fixed with 4% paraformaldehyde-PBS for 15 min and permeabilized with 0.1% Triton X-100 in TBS. After blocking in 3% FBS in PBS for 30 min, cells were incubated with primary antibodies overnight at 4° C. After three washes with PBS, cells were incubated with Alexa Fluor 488- or 555-conjugated secondary antibodies (Invitrogen, 1:1000 dilution) for 2 h at room temperature. Slides were then washed three times and mounted. Immunofluorescence was detected using Olympus confocal microscopy. Primary antibodies used were: YAP (H-125) and YAP (63.7) from Santa Cruz, HA from Covance, β-catenin from BD biosciences. Phalloidin alexa 488 was used to stain actin filaments. For paraffin-embedded tissues from control or LPA receptor transgenic mammary glands, 5 μm sections were prepared and subjected for immunostaining Following deparaffinization and hydration, slides were heated in sub-boiling buffer (10 mM sodium citrate, pH 6.0) for 15 min for antigen retrieval. TAZ antibody (H-70) from Santa Cruz was used to as primary antibody.

For a further test, the system named is CREB. As to the kind of experiment: CREB phosphorylation by immunoblotting. Type of test: cell-based, human. Here is the method: (§2) Immunoblotting was performed using standard protocol. Antibodies for pYAP (S127), pYAP(S381/384), pMST1/2, TAZ, pERK, ERK1/2, Lats1, MST1, pAKT (S473), pS6K, S6K were from Cell Signaling, antibodies for YAP (H-125), CTGF, Cyr61, Gq/11, G13 and 14-3-3θ were from Santa Cruz, TEAD1 antibody was from BD biosciences, pTAZ (S89) antibody was in-house raised, GAPDH antibody was a gift from Dr. Yan Luo. The phos-tag reagents were purchased from Wako Chemicals, and gels containing phos-tag were prepared according to manufacture's instructions. YAP proteins can be separated into multiple bands in the presence of phos-tag depending on differential phosphorylation levels, with phosphorylated proteins run migrate slower.
as §1, with “YAP proteins can be separated into multiple bands on phos-tag gels, with the phosphorylated form of YAP proteins migrating at a slower speed.” left out
Background: A western blot detects proteins with antibodies after separation by electrophoresis.

In a further test the test system is HEK293A cells. As to the kind of experiment: cell proliferation assay, HEK293A. Type of test: cell-based, human. The following applies: 10 μM LPA, replenished every day. How it is done: HEK293A cells (expressing control shRNA or YAP/TAZ shRNA, 2×10^5) in serum-free media were maintained in the presence or absence of 10 μM LPA for 1, 2 or 3 day. Cell numbers were determined daily using a cell counter (Bio-Rad). LPA was replenished every day.

Another test has as its system CTGF. As to the kind of experiment: expression of YAP/TAZ target gene CTGF. It is filed as cell-based, human. Conditions: HEK293A. How it is done: as §2
Following various treatments, cells were washed with cold phosphate-buffered saline and subjected to RNA extraction using an RNeasy Plus mini kit (Qiagen). […] Complementary DNA was then diluted and used for quantification (with β-actin gene as a control) by real-time PCR, which was performed using KAPA SYBR FAST qPCR master mix (Kapa Biosystems) and the 7300 real-time PCR system (Applied Biosystems). […]
RNA extraction, reverse transcription and real-time PCR. […] After dilution, cDNA levels were quantified by real-time PCR using KAPA SYBR FAST qPCR master mix (Kapa Biosystems) and the 7300 real-time PCR system (Applied Biosystems). […]

For test [4], the system named is YAP. As to the kind of experiment: YAP immunoprecipitation with TEAD1 and 14-3-3. Type of test: cell-based, human. The following applies: HEK293A. How it is done: (§3) Cells were lysed using mild lysis buffer (50 mM HEPES at pH 7.5, 150 mM NaCl, 1 mM EDTA, 1% NP-40, 10 mM pyrophosphate, 10 mM glycerophosphate, 50 mM NaF, 1.5 mM Na3VO4, protease inhibitor cocktail [Roche], 1 mM PMSF). Cell lysates were centrifuged for 10 min at 4° C., and supernatants were used for immunoprecipitation. YAP (Bethyl Laboratories) antibody was mixed with the supernatant for 1 h, and protein A-agarose beads were added in for 1 h. Immunoprecipitates were washed four times with lysis buffer, and proteins were eluted with SDS-PAGE sample buffer. For kinase assay, MST1, Lats1 or HA-Lats2 was immunoprecipitated similarly using MST1, Lats1 (Cell Signaling) or HA (Covance) antibodies.

Another test relates to Mst1/2. As to the kind of experiment: Mst kinase activity and phosphorylation in treated cells. It is filed as cell-based, human. Here is the method:
Following immunoprecipitation, protein beads were washed once with wash buffer (40 mM HEPES, 200 mM NaCl) and once with kinase assay buffer (30 mM HEPES, 50 mM potassium acetate, 5 mM MgCl2). The immunoprecipitated Mst1 was subjected to a kinase assay in the presence of 500 μM cold ATP, 10 μCi [γ-^32P] ATP, and 1 μg of GST-Mob expressed and purified from Escherichia coli as substrate. The reaction mixtures were incubated for 30 min at 30° C., terminated with SDS sample buffer, and subjected to SDS-PAGE and autoradiography. Lats1 or HA-Lats2 kinase assays were performed similarly but using GST-YAP as substrates in the absence of [γ-^32P] ATP. The phosphorylation of GST-YAP at S127 was determined by immunoblotting using pYAP antibody.

Test [5] relates to Lats1. As to the kind of experiment: Lats1 phosphorylation (S909, T1079) by immunoblotting. Type of test: cell-based, human. Conditions: HEK293A; LPA 1 μM, 1 h. How it is done: as §3
Immunoblotting was performed using standard protocol. Antibodies for pYAP (S127), pYAP(S381/384), pMST1/2, TAZ, pERK, ERK1/2, Lats1, MST1, pAKT (S473), pS6K, S6K were from Cell Signaling, antibodies for YAP (H-125), CTGF, Cyr61, Gq/11, G13 and 14-3-3θ were from Santa Cruz, TEAD1 antibody was from BD biosciences, pTAZ (S89) antibody was in-house raised, GAPDH antibody was a gift from Dr. Yan Luo. The phos-tag reagents were purchased from Wako Chemicals, and gels containing phos-tag were prepared according to manufacture's instructions. […]

Read-outs that look alike come from different tables or passages of the source.

In the case of `CNC[C@H](O)c1ccc(O)c(O)c1` [epinephrine], in the test with YAP/TAZ, the “YAP phosphorylation (Ser127, phos-tag), time course” value is “transiently increased”; the “mutual effect of epinephrine and LPA on YAP phosphorylation” value is on record as “antagonized each other's effect”; the “phosphorylation of YAP” value is “dose-dependent phosphorylation”. Moreover, the Lats1 activity entry with Lats1 [1] is “increased”. For the same compound, in the test with YAP [2], the “YAP phosphorylation in heart” value is “significantly increased”. Further, the “YAP localization (immunofluorescence)” value in the test on YAP [3] is recorded as “accumulation of cytoplasmic YAP”. Also, in the test on CREB, the “phosphorylation of CREB” value is “increased” and the “phosphorylation of CREB, time course” value is listed as “transient induction”.

lysophosphatidic acid [LPA]: the “cell proliferation in serum free medium” value in the test with HEK293A cells was “strongly induced cell proliferation”. Moreover, in the test on YAP/TAZ (HEK293A transfected with GFP-YAP, LPA 1 h), the “phosphorylation of YAP S381/384” value is recorded as “decreased”. Also, in the test on YAP/TAZ (HEK293A, 1 μM for indicated times), the “YAP/TAZ dephosphorylation, time course” value is on record as “rapid YAP/TAZ dephosphorylation”. Besides, the “dephosphorylation of YAP/TAZ by phospholipids” value with YAP/TAZ (HEK293A, 100 μM lipid) was “strongly induced dephosphorylation”. In the test with YAP/TAZ (HEK293A, 1 h), the “concentration inducing complete YAP/TAZ dephosphorylation” value turned out to be 0.1 µM and the “concentration inducing partial YAP/TAZ dephosphorylation” value amounted to 0.01 µM. Moreover, the “YAP dephosphorylation, different doses” value with YAP/TAZ (HEK293A, different doses of LPA, S1P, LPC or PA for 1 h) is “potently induced”. In addition, the “mutual effect of epinephrine and LPA on YAP phosphorylation” value in the test with YAP/TAZ (serum-starved U2OS, LPA, epinephrine or both, 1 h) is listed as “antagonized each other's effect”. The Lats1 kinase activity result in the test on Lats1 [1] (HEK293A, serum or LPA) was “rapidly inhibited”. In addition, in the test on CTGF, the “expression of CTGF” value is “induced”. Besides, in the test with YAP [4], the YAP-14-3-3 interaction result is “attenuated”; the “interaction between YAP and TEAD1” value is “enhanced”. Also, the YAP nuclear localization entry in the test on YAP [3] (HEK293A and MCF10A, 1 μM, 1 h) was “induced YAP nuclear localization”. Moreover, in the test with YAP [3] (MCF10A), the “time after LPA withdrawal at which YAP redistributed into cytoplasm” value is listed as 30 min. Also, in the test with Mst1/2 (HEK293A with Flag-MST2, LPA 0.2 or 1 μM, 1 h), the “phosphorylation of MST2 at T180” value is recorded as “not changed”. Further, the Mst1 kinase activity entry with Mst1/2 (HEK293A, FBS 1% or LPA 1 μM, GST-Mob substrate) was “no detectable effect”. Also, the “phosphorylation of Lats1 at S909 and T1079” value in the test on Lats1 [5] is reported as “decreased”.
